Results taken from patent US20260216107A1, “INTERLEUKIN-6 (IL-6)/SIGNAL TRANSDUCER AND ACTIVATOR OF TRANSCRIPTION 3 (STAT3) PATHWAY INHIBITORS FOR USE IN THE TREATMENT OF GRANULOMATOUS DISEASES” (UCL BUSINESS LTD, priority 2023, published 2026).
Entries after “also recorded” stand apart in the source; their conditions may differ.

Tests used:
THP1 monocytes = assay: PR3-stimulated giant cell formation in THP1 monocytes matured to macrophages; type: cell-based; conditions: PMA 24 hours, PR3 10 mcg/ml 72 hours, with or without Stattic; FIG. 19
Description: An in vitro model of granulomatous disease was created using THP1 monocytes. The THP1 monocytes were matured to macrophages by the addition of PMA for 24 hours and then stimulated with PR3 at 10 mcg/ml for 72 hours in the presence or absence of Stattic, a STAT3 inhibitor. MGC formation was assessed as before by calculating the fusion index.

IL-6 = IL-6 levels in zebrafish model of granulomatous disease; type: in vivo; conditions: PR3 zebrafish model, niclosamide via fish tank water
Source text: An in vivo model of granulomatous disease in zebrafish was developed by administering PR3 to the fish.

macrophage aggregation = assay: PR3-induced macrophage aggregation / MGC formation in zebrafish embryos, niclosamide added to fish water; type: in vivo; conditions: for Median aggregate volume: PR3-injected zebrafish, PR3 alone 106969 (41031-465184)
Description: The injection of intact or HI PR3 into the zebrafish was repeated in the presence or absence of the IL-6/STAT3 inhibitor niclosamide, which was added to the fish water at different concentrations (0.01-0.3 μmol/l) (FIG. 11B, C). […] Median aggregate volume PR3 vs PR3 and niclosamide 0.3, 0.15. 0.05. 0.01 μmol/ml respectively 106969 (41031-465184), 42730 (25638-324957), 44501 (26861-90354), 63043 (27395-205060), 117473 (35128-245781) (p<0.05 PR3 vs 0.3 and 0.05, p<0.001 PR3 vs 0.15 μmol/l; one way ANOVA).
In Vivo Effect of PR3 on MGC Formation and the Ability of Niclosamide to Reduce MGC Formation In order to understand granuloma formation in vivo, a zebrafish embryo model was developed. Transgenic macrophage reporter zebrafish {Tg (MPEg: cherry)} embryos at 24 hpf, were injected into the yolk sac with human PR3 or Albumin at 1 or 5 […], either untreated or following heat inactivation. Embryos were imaged at 120 hpf with lightsheet microscopy showing volumes of fused macrophages according to the colour scale (see FIG. 8A-D). […] Median (IQR) aggregate volumes were HI albumin 5 pg/ml 22713 μm^3 (19918-31486) and HI PR3 5 pg/ml 31571 μm^3 (23137-49647) (p<0.001, one way ANOVA). In subsequent experiments, the injection of intact or HI PR3 was repeated in the presence or absence of the IL-6-STAT3 inhibitor niclosamide, added to the fish water at different concentrations (0.01-0.3 μmol/l) (see FIG. 8F-G). […] Median aggregate volume PR3 vs PR3 and niclosamide 0.3, 0.15. 0.05. 0.01 μmol/ml respectively 106969 (41031-465184), 42730 (25638-324957), 44501 (26861-90354), 63043 (27395-205060), 117473 (35128-245781) (p<0.05 PR3 vs 0.3 and 0.05, p<0.001 PR3 vs 0.15 μmol/l; one way ANOVA).
In Vivo Danio rerio Model All animal experimental protocols were approved by University College London's Animal Welfare and Ethical Review Body (AWERB) and licensed by the UK Home Office. All experiments were performed in accordance with relevant guidelines and regulations as described in UK Home Office Project License (PPL 70/8365) awarded to Dr Paul Frankel. The Transgeneic Tg (mpeg: GFP) line was kindly provided by Professor Maggie Dallman (Imperial College London, UK). Zebrafish were maintained in mixed-sex populations at 28° C. with a 14 h: 10 h light: dark cycle from 9 am-[…] and within internationally agreed environmental parameters regarding water quality and composition. Following dechorionation and anaesthesia with tricaine (0.2 mg/ml), embryos were microinjected into the yolk sac with 5 pg/mL of PR3, heat inactivated PR3, or albumin and incubated in 10 cm Petri dishes at 28.5° C. After 5 days, living embryos were anaesthetised with tricaine (0.2 mg/ml) and embedded in 2% agarose for 3-dimensional confocal microscopy using a Ziess camera at ×200 magnification to determine macrophage fusion. Z-stacks were analysed using Imaris software version 9.2. Images were 3D rendered and aggregate volumes measured by automated thresholds.

GPA patients' monocytes = assay: PR3-stimulated MGC formation (fusion index) in GPA patients' monocytes; type: cell-based, human; conditions: cultured monocytes; Tocilizumab 10 μg/mL

O=[N+]([O-])c1ccc2c(c1)S(=O)(=O)C=C2 [Stattic]
giant cell formation index (THP1 monocytes): significant decrease; also recorded: lower giant cell formation index

O=C(Nc1ccc([N+](=O)[O-])cc1Cl)c1cc(Cl)ccc1O [niclosamide, Niclosamide]
IL-6 levels (IL-6): reduce IL-6 levels | aggregate volume and number (macrophage aggregation; FIG. 8F, G, 0.3, 0.15 and 0.05 μmol/ml niclosamide compared to PR3 alone): reduction in aggregate volume and number | Median aggregate volume (macrophage aggregation; niclosamide 0.01 μmol/l in fish water): 117473 (35128-245781) μm^3 | Median aggregate volume (macrophage aggregation; niclosamide 0.05 μmol/l in fish water, p<0.05): 63043 (27395-205060) μm^3 | Median aggregate volume (macrophage aggregation; niclosamide 0.15 μmol/l in fish water, p<0.001): 44501 (26861-90354) μm^3 | Median aggregate volume (macrophage aggregation; niclosamide 0.3 μmol/l in fish water, p<0.05): 42730 (25638-324957) μm^3 | granuloma formation (macrophage aggregation; PR3 zebrafish model, niclosamide via fish tank water): significantly inhibit granuloma formation | macrophage aggregation (macrophage aggregation; after injection of enzymatically active or inactive PR3 into the yolk sac): significantly attenuated | MGC formation (macrophage aggregation; zebrafish injected with intact or HI PR3, niclosamide 0.01-0.3 μmol/l in fish water, vs PR3 alone): significantly less MGC formation | concentration at which the reduction of MGC formation was maximal (macrophage aggregation; zebrafish injected with intact or HI PR3, niclosamide in fish water): 0.15 µmol/mL

Tocilizumab: humanised IgG1 monoclonal antibody against the human interleukin-6 (IL-6) receptor (RoActerma, Roche, UK)
granuloma formation (GPA patients' monocytes): reduced granuloma formation
